# Patent publication US9499495B2, “Quinazolines and azaquinazolines as dual inhibitors of RAS/RAF/MEK/ERK and PI3K/AKT/PTEN/mTOR pathways” (Asana Biosciences, LLC, priority 2013, dated 2016)
# Tests used:
# [1] = target: T1, mTOR kinase (Homo sapiens, UniProt P42345); assay: mTOR kinase TR-FRET assay; type: biochemical
# T1 construct: purchased Millipore, US
# Protocol: Compound inhibition for mTOR kinase was determined by homogeneous TR-FRET assay using ULight-p70 S6K (Thr 389) peptide as substrate. mTOR enzyme (Millipore, US; […]) was used in the assay. The reaction buffer was HEPES (50 mM, pH 7.5), EGTA (1 mM), and MnCl2 (3 mM). Test compound was pre-incubated with mTOR for 30 min followed by 50 nM ULight-p70 S6K (Thr 389) peptide along with ATP (20 μM).
# After incubating the reaction mixture for 30 min, Eu-labeled anti-phospho-substrate antibody (1 nM, Perkin Elmer, USA) was added. Fluorescence emission at […] was measured upon excitation at 340 nm. The compound dilution was carried out in 100% DMSO followed by a buffer dilution. The kinase reaction was incubated for 1 h at rt followed by the addition of substrate-ATP mix and incubated at rt for 1 h. The reaction was terminated by the addition of EDTA followed by the addition of detection mix. IC50 values were determined using a sigmoidal dose response curve fit, GraphPad Prism® v5 software.
# [2] = target: T2, B-RAFV600E (Homo sapiens, UniProt P15056, V600E); assay: B-RAFV600E radiometric assay; type: biochemical; settings: read-out: Kinase assay B-Raf
# T2 construct: purchased Millipore, USA 14-557
# Protocol: Compound inhibition for B-RAFV600E was determined through radiometric assay using a BRAF enzyme (Catalog No. 14-557, Millipore, USA) and MEK-K97M protein as a substrate (Catalog No. 0785-0000-1, ProqQinase GmbH, Germany). The B-RAF kinase catalyzes the phosphorylation of MEK protein in the presence of gamma ATP (PLC-101, Jonaki, CCMB, Hyderabad), cold ATP and Mg^2+.
# The phosphorylated protein product is detected by the scintillation counter Topcount® machine (Perkin Elmer). This assay has been adapted from the method previously reported by Yeh et al. (2007, Clinical Cancer Research; 13, 1576-1583). The assay measures the B-RAF mediated transfer of 32P from the gamma position of radiolabeled ATP onto MEK1-KD. The labeled phosphorylated protein was measured in MicroBeta® Trilux Counter (Perkin Elmer). The assay was validated with reference compounds RAF1 Kinase Inhibitor I and ZM 336372 inhibitor which are reported to be inhibitors of B-RAF enzyme (Lackey, 2000, Medicinal Chemistry Letters; 10(3):223-226; Kupcho, “Fluorescent High throughput kinase cascade assays for inhibitor characterization, RAF-MEK-ERK pathway, www.invitrogen.com, and Hall-Jackson, 1999, Chemical Biology; 6(8):559-568). B-RAF enzyme mixture (13 μL) was added to compound wells containing 2 μL of the NCE in 1% DMSO and incubated for 45 min at rt on a shaking incubator at 300 rpm. MEK-K97M (0.5 μg) and cold ATP to a final concentration of 5 μM, and hot ATP 0.1 μCi in a volume of 10 μL was added to each well and incubated for 2 h at rt on a shaking incubator at 300 rpm. The reaction was stopped by addition of […] (13 μL) containing ATP (1 mM: 495 μL 1N HCl and 5 μL 100 mM ATP). Aliquot (30 μL) was then transferred to the center of a 2 cm×2 cm P81 paper. P81 paper was washed 8×5 min each with ortho-phosphoric acid (0.5%). P81 papers are washed twice with acetone for […] Assay squares were allowed to dry for […] at 37° C. P81 paper are transferred to Optiplate™ (Perkin Elmer) and counted in a Topcount® counter (Perkin Elmer). Data was plotted against the compound concentration to generate dose-response curves and IC50 values were determined using a sigmoidal dose response curve fit GraphPad Prism® v5 software.
# T1 sequence (P42345 1362-2549 limits assumed): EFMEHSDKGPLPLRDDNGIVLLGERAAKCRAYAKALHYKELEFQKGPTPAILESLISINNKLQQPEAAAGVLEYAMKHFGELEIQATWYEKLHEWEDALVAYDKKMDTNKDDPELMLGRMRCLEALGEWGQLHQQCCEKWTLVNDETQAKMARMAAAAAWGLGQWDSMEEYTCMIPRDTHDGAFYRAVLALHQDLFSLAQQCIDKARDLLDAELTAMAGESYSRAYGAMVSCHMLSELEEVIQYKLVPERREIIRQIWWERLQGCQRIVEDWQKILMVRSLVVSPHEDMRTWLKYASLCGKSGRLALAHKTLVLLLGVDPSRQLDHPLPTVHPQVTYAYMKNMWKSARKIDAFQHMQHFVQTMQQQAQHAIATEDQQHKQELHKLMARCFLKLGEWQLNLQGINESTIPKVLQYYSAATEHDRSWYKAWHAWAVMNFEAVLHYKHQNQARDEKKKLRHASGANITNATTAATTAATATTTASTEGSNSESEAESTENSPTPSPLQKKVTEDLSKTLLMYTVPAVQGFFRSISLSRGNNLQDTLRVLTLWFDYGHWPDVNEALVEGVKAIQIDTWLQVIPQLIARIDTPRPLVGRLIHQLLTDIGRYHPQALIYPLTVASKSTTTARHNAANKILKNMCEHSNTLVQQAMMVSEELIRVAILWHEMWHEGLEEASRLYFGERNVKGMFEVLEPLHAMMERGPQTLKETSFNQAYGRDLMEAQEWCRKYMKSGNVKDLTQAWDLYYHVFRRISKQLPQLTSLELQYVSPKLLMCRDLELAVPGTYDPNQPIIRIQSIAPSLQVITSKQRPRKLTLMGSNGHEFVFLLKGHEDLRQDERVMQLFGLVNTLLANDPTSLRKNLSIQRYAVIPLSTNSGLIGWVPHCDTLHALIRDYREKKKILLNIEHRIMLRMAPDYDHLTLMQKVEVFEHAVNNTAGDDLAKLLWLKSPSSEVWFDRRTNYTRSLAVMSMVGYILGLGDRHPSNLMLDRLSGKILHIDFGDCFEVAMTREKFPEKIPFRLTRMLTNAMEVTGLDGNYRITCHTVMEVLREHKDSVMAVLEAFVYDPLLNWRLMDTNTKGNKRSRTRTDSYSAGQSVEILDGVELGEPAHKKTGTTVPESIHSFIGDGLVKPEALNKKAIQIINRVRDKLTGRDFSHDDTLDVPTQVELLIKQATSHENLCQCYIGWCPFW
# T2 sequence (P15056 416-766 V600E limits assumed): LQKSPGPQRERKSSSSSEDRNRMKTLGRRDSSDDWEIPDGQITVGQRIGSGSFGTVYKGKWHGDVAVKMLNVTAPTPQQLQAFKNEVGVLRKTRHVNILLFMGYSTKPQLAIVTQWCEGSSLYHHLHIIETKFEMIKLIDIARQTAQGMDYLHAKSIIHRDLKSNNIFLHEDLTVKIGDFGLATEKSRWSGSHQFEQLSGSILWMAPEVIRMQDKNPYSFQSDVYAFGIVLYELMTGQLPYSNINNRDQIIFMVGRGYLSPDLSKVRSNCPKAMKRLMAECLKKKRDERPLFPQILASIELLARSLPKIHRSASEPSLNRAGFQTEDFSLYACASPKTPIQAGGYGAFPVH
Structure (SMILES),IC50 [1],IC50 [2]
"CCCS(=O)(=O)Nc1cccc(-c2cc(OCCO)c3nc(-c4ccc(N)nc4)nc(N4CCOCC4)c3c2)c1F [Example 4, N-(3-(2-(6-aminopyridin-3-yl)-8-(2-hydroxyethoxy)-4-morpholinoquinazolin-6-yl)-2-fluorophenyl)propane-1-sulfonamide]",100 to 1000 nM,100 to 1000 nM
"CCCS(=O)(=O)Nc1cccc(-c2cc(OC)c3nc(-n4c(CO)nc5ccccc54)nc(N4CCOCC4)c3c2)c1F [Example 10, N-(2-fluoro-3-(2-(2-(hydroxymethyl)-1H-benzo[d]imidazol-1-yl)-8-methoxy-4-morpholinoquinazolin-6-yl)phenyl)propane-1-sulfonamide]",100 to 1000 nM,100 to 1000 nM
"CCCS(=O)(=O)Nc1cccc(-c2cc(OC)c3nc(-c4ccc(NC(=O)Nc5ccncc5)cc4)nc(N4CCOCC4)c3c2)c1F [Example 34, N-(2-fluoro-3-(8-methoxy-4-morpholino-2-(4-(3-(pyridin-4-yl)ureido)phenyl)quinazolin-6-yl)phenyl) propane-1-sulfonamide]",1 to 100 nM,100 to 1000 nM
"COc1cc(-c2cccc(NS(=O)(=O)CCCF)c2F)cc2c(N3CCOC[C@H]3C)nc(-c3cnc4[nH]ccc4c3)nc12 [Example 44, (R)-3-fluoro-N-(2-fluoro-3-(8-methoxy-4-(3-methylmorpholino)-2-(1H-pyrrolo[2,3-b]pyridin-5-yl)quinazolin-6-yl)phenyl)propane-1-sulfonamide]",100 to 1000 nM,100 to 1000 nM
"CCOc1cc(-c2cccc(NS(=O)(=O)CCCF)c2F)cc2c(N3CCOC[C@H]3C)nc(-c3cnc4[nH]ccc4c3)nc12 [Example 61, (R)-N-(3-(8-ethoxy-4-(3-methylmorphollno)-2-(1H-pyrrolo[2,3-b]pyridin-5-yl)quinazolin-6-yl)-2-fluorophenyl)-3-fluoropropane-1-sulfonamide]",100 to 1000 nM,1 to 100 nM
"C[C@@H]1COCCN1c1nc(-c2ccc(N)nc2)nc2c(N3CCOCC3)cc(-c3cccc(NS(=O)(=O)CCCF)c3F)cc12 [Example 72, (R)-N-(3-(2-(6-aminopyridin-3-yl)-4-(3-methylmorpholino)-8-morpholinoquinazolin-6-yl)-2-fluorophenyl)-3-fluoropropane-1-sulfonamide]",1 to 100 nM,1 to 100 nM
"C[C@@H]1COCCN1c1nc(-c2ccc(N)nc2)nc2c(N3CCCC3)cc(-c3cccc(NS(=O)(=O)CCCF)c3F)cc12 [Example 74, (R)-N-(3-(2-(6-aminopyridin-3-yl)-4-(3-methylmorpholino)-8-(pyrrolidin-1-yl)quinazolin-6-yl)-2-fluorophenyl)-3-fluoropropane-1-sulfonamide]",100 to 1000 nM,1 to 100 nM
"CCc1cc(-c2cccc(NS(=O)(=O)CCCF)c2F)cc2c(N3CCOC[C@H]3C)nc(-c3cnc(N)nc3)nc12 [Example 119, (R)-N-(3-(2-(2-aminopyrimidin-5-yl)-8-ethyl-4-(3-methylmorpholino)quinazolin-6-yl)-2-fluorophenyl)-3-fluoropropane-1-sulfonamide]",100 to 1000 nM,1 to 100 nM
"COCCNc1ccc(-c2nc(N3CCOCC3)c3nc(-c4cccc(NS(=O)(=O)CCCF)c4F)ccc3n2)cn1 [Example 133, 3-fluoro-N-(2-fluoro-3-(2-(6-((2-methoxyethyl)amino)pyridin-3-yl)-4-morpholinopyrido[3,2-d]pyrimidin-6-yl)phenyl)propane-1-sulfonamide]",100 to 1000 nM,1 to 100 nM

# Other lines, results leading:
IC50 [1],IC50 [2],Structure (SMILES)
100 to 1000 nM,100 to 1000 nM,"CCCCS(=O)(=O)Nc1cccc(-c2cc(OC)c3nc(-c4cnc(N)nc4)nc(N4CCOCC4)c3c2)c1F [Example 23, N-(3-(2-(2-aminopyrimidin-5-yl)-8-methoxy-4-morpholinoquinazolin-6-yl)-2-fluorophenyl)butane-1-sulfonamide]"
100 to 1000 nM,100 to 1000 nM,"COc1cc(-c2cccc(NS(=O)(=O)c3ccc(F)cc3F)c2F)cc2c(N3CCOCC3)nc(-c3cnc(N)nc3)nc12 [Example 24, N-(3-(2-(2-aminopyrimidin-5-yl)-8-methoxy-4-morpholinoquinazolin-6-yl)-2-fluorophenyl)-2,4-difluorobenzenesulfonamide]"
100 to 1000 nM,100 to 1000 nM,"COc1cc(-c2cccc(NS(=O)(=O)CCC(F)(F)F)c2F)cc2c(N3CCOCC3)nc(-c3ccc(N)nc3)nc12 [Example 31, N-(3-(2-(6-aminopyridin-3-yl)-8-methoxy-4-morpholinoquinazolin-6-yl)-2-fluorophenyl)-3,3,3-trifluoropropane-1-sulfonamide]"
100 to 1000 nM,1 to 100 nM,"COc1cc(-c2cccc(NS(=O)(=O)CCCF)c2F)cc2c(N3CCOCC3)nc(-c3cnc(N)nc3C)nc12 [Example 35, N-(3-(2-(2-amino-4-methylpyrimidin-5-yl)-8-methoxy-4-morpholinoquinazolin-6-yl)-2-fluorophenyl)-3-fluoropropane-1-sulfonamide]"
100 to 1000 nM,1 to 100 nM,"CCCNc1ccc(-c2nc(N3CCOCC3)c3cc(-c4cccc(NS(=O)(=O)CCCF)c4F)cc(OC)c3n2)cn1 [Example 49, 3-fluoro-N-(2-fluoro-3-(8-methoxy-4-morpholino-2-(6-(propylamino)pyridin-3-yl)quinazolin-6-yl)phenyl)propane-1-sulfonamide]"
1 to 100 nM,100 to 1000 nM,"Nc1ccc(-c2nc(N3CCOCC3)c3cc(-c4cccc(NS(=O)(=O)CCCF)c4F)cc(OCC(=O)O)c3n2)cn1 [Example 59, 2-((2-(6-aminopyridin-3-yl)-6-(2-fluoro-3-(3-fluoropropylsulfonamido)phenyl)-4-morpholino-quinazolin-8-yl)oxy)acetic acid 2,2,2-trifluoroacetate]"
100 to 1000 nM,1 to 100 nM,CCOc1cc(-c2cccc(NS(=O)(=O)CCCF)c2F)cc2c(N3CCOC[C@@H]3C)nc(-c3cnc(N)nc3)nc12 [Example 66]
100 to 1000 nM,1 to 100 nM,COc1cc(-c2c(F)ccc(NS(=O)(=O)CCCF)c2F)cc2c(N3CCOCC3)nc(-c3cnc4[nH]ccc4c3)nc12 [Example 83]
100 to 1000 nM,1 to 100 nM,"COc1cc(-c2c(Cl)ccc(NS(=O)(=O)CCCF)c2F)cc2c(N3CCOCC3)nc(-c3ccc(N)nc3)nc12 [Example 85, N-(3-(2-(6-aminopyridin-3-yl)-8-methoxy-4-morpholinoquinazolin-6-yl)-4-chloro-2-fluorophenyl)-3-fluoropropane-1-sulfonamide]"
100 to 1000 nM,1 to 100 nM,"COc1cc(-c2cccc(NS(=O)(=O)CCCF)c2F)cc2c(N3CCOCC3)nc(-c3ccc(NC(C)=O)nc3)nc12 [Example 124, N-(5-(6-(2-fluoro-3-(3-fluoropropylsulfonamido)phenyl)-8-methoxy-4-morpholinoquinazolin-2-yl)pyridin-2-yl)acetamide]"
100 to 1000 nM,100 to 1000 nM,"COc1cc(-c2cccc(NS(=O)(=O)CCCF)c2F)cc2c(N3CCOCC3)nc(-c3ccc(NS(C)(=O)=O)cc3)nc12 [Example 126, 3-f1uoro-N-(2-fluoro-3-(8-methoxy-2-(4-(methylsulfonamido)phenyl)-4-morpholinoquinazolin-6-yl)phenyl)propane-1-sulfonamide]"
